The values below come from PubChem BioAssay AID1259407 (Chemical Carcinogenesis Research Information System (CCRIS), 2018).

The source made the active and inactive calls. The rule behind the calls is not given here.

The test system of this series is CCRIS mutagenicity, Ames/micronucleus/aberration tests. The series can be described thus: CCRIS mutagenicity studies.
The mark [1] stands for this setting: Test System: AMES SALMONELLA TYPHIMURIUM, Strain/Indicator: TA100, Metabolic Activation: NONE, Method: PREINCUBATION
Setting [2] is: Test System: AMES SALMONELLA TYPHIMURIUM, Strain/Indicator: TA1535, Metabolic Activation: NONE, Method: PREINCUBATION
Where [3] appears, read: Test System: AMES SALMONELLA TYPHIMURIUM, Strain/Indicator: TA100, Metabolic Activation: NONE, Method: STANDARD PLATE.
The mark [4] stands for this setting: Test System: AMES SALMONELLA TYPHIMURIUM, Strain/Indicator: TA1535, Metabolic Activation: NONE, Method: STANDARD PLATE.

For the molecule `CC(C#N)CCC#N` (stereo not given), the mutagenic call reads like this: (Test System: AMES SALMONELLA TYPHIMURIUM, Strain/Indicator: TA97, Metabolic Activation: HAMSTER, LIVER, S-9, AROCLOR 1254 (5, 10 OR 30%), Method: PREINCUBATION) “inactive; negative”; (Test System: AMES SALMONELLA TYPHIMURIUM, Strain/Indicator: TA97, Metabolic Activation: NONE, Method: PREINCUBATION) “inactive; negative”; (Test System: AMES SALMONELLA TYPHIMURIUM, Strain/Indicator: TA97, Metabolic Activation: RAT, LIVER, S-9, AROCLOR 1254 (5, 1O OR 30%), Method: PREINCUBATION) “inactive; negative”; (Test System: AMES SALMONELLA TYPHIMURIUM, Strain/Indicator: TA98, Metabolic Activation: HAMSTER, LIVER, S-9, AROCLOR 1254 (10%), Method: PREINCUBATION) “inactive; negative”; (Test System: AMES SALMONELLA TYPHIMURIUM, Strain/Indicator: TA98, Metabolic Activation: NONE, Method: PREINCUBATION) “inactive; negative”; (Test System: AMES SALMONELLA TYPHIMURIUM, Strain/Indicator: TA98, Metabolic Activation: RAT, LIVER, S-9, AROCLOR 1254 (10%), Method: PREINCUBATION) “inactive; negative”. Also, the mutagenic call is “inactive; negative” (Test System: AMES SALMONELLA TYPHIMURIUM, Strain/Indicator: TA100, Metabolic Activation: HAMSTER, LIVER, S-9, AROCLOR 1254 (10%), Method: PREINCUBATION); “inactive; negative” under setting [1]; “inactive; negative” (Test System: AMES SALMONELLA TYPHIMURIUM, Strain/Indicator: TA100, Metabolic Activation: RAT, LIVER, S-9, AROCLOR 1254 (10%), Method: PREINCUBATION); “inactive; negative” (Test System: AMES SALMONELLA TYPHIMURIUM, Strain/Indicator: TA1535, Metabolic Activation: HAMSTER, LIVER, S-9, AROCLOR 1254 (10%), Method: PREINCUBATION); “inactive; negative” under setting [2]; “inactive; negative” (Test System: AMES SALMONELLA TYPHIMURIUM, Strain/Indicator: TA1535, Metabolic Activation: RAT, LIVER, S-9, AROCLOR 1254 (10%), Method: PREINCUBATION). The mutagenic call is, setting by setting: (Test System: AMES SALMONELLA TYPHIMURIUM, Strain/Indicator: TA1537, Metabolic Activation: HAMSTER, LIVER, S-9, AROCLOR 1254 (10 OR 30%), Method: PREINCUBATION) “inactive; negative”; (Test System: AMES SALMONELLA TYPHIMURIUM, Strain/Indicator: TA1537, Metabolic Activation: NONE, Method: PREINCUBATION) “inactive; negative”; (Test System: AMES SALMONELLA TYPHIMURIUM, Strain/Indicator: TA1537, Metabolic Activation: RAT, LIVER, S-9, AROCLOR 1254 (10 OR 30%), Method: PREINCUBATION) “inactive; negative”.

Turning to `N#Cc1cc(I)c(O)c([N+](=O)[O-])c1`, the mutagenic call by setting is: (End Point: In vivo chromosomal aberrations, Test System: Bone marrow cells, Species: Mouse, Strain/Sex: Swiss/Male, Route: Intraperitoneal) “active; positive (structural changes)”; (Test System: AMES SALMONELLA TYPHIMURIUM, Strain/Indicator: TA98, Metabolic Activation: NONE, Method: STANDARD PLATE) “inactive; negative”; (Test System: AMES SALMONELLA TYPHIMURIUM, Strain/Indicator: TA98, Metabolic Activation: RAT, LIVER, S-9, KANECHLOR 400, Method: STANDARD PLATE) “inactive; negative”; under setting [3], “inactive; negative”; (Test System: AMES SALMONELLA TYPHIMURIUM, Strain/Indicator: TA100, Metabolic Activation: RAT, LIVER, S-9, KANECHLOR 400, Method: STANDARD PLATE) “inactive; negative”; under setting [4], “inactive; negative”. Moreover, the mutagenic call (Test System: AMES SALMONELLA TYPHIMURIUM, Strain/Indicator: TA1535, Metabolic Activation: RAT, LIVER, S-9, KANECHLOR 400, Method: STANDARD PLATE) is “inactive; negative”; the mutagenic call (Test System: AMES SALMONELLA TYPHIMURIUM, Strain/Indicator: TA1537, Metabolic Activation: NONE, Method: STANDARD PLATE) is “inactive; negative”; the mutagenic call (Test System: AMES SALMONELLA TYPHIMURIUM, Strain/Indicator: TA1537, Metabolic Activation: RAT, LIVER, S-9, KANECHLOR 400, Method: STANDARD PLATE) is “inactive; negative”; the mutagenic call (Test System: AMES SALMONELLA TYPHIMURIUM, Strain/Indicator: TA1538, Metabolic Activation: RAT, LIVER, S-9, KANECHLOR 400, Method: STANDARD PLATE) was “inactive; negative”.

With `CN(N=O)C(=O)Nc1ccc(Cl)cc1`, for the setting “End Point: IN VITRO CHROMOSOMAL ABERRATIONS, Test System: CHINESE HAMSTER V79-E CELLS, Metabolic Activation: NONE”, the mutagenic call is “active; weakly positive”.

As for `O=P1(NCCCl)OCCCN1CCCl` (stereo not given), the mutagenic call reads like this: (Test System: AMES SALMONELLA TYPHIMURIUM, Strain/Indicator: TA100, Metabolic Activation: NADPH, Method: PREINCUBATION) “active; positive”; under setting [1], “active; positive”; (Test System: AMES SALMONELLA TYPHIMURIUM, Strain/Indicator: TA100, Metabolic Activation: RAT, LIVER, HEPATOCYTES, PHENOBARBITAL, Method: PREINCUBATION) “inactive; negative”; (Test System: AMES SALMONELLA TYPHIMURIUM, Strain/Indicator: TA100, Metabolic Activation: RAT, LIVER, S-9, AROCLOR 1254, Method: STANDARD PLATE) “active; positive”; (Test System: AMES SALMONELLA TYPHIMURIUM, Strain/Indicator: TA100, Metabolic Activation: RAT, LIVER, S-9, PHENOBARBITAL, NADPH, Method: PREINCUBATION) “active; positive”; (Test System: AMES SALMONELLA TYPHIMURIUM, Strain/Indicator: TA100, Metabolic Activation: RAT, LIVER, S-9, PHENOBARBITAL, Method: PREINCUBATION) “active; positive”. Moreover, the mutagenic call (Test System: AMES SALMONELLA TYPHIMURIUM, Strain/Indicator: TA1535, Metabolic Activation: RAT, LIVER, HEPATOCYTES, PHENOBARBITAL, Method: PREINCUBATION) was “active; positive” and the mutagenic call (Test System: AMES SALMONELLA TYPHIMURIUM, Strain/Indicator: TA1535, Metabolic Activation: RAT, LIVER, S-9, AROCLOR 1254, Method: STANDARD PLATE) was “active; positive”.

As to `CC1(C)[C@H](/C=C(\Cl)C(F)(F)F)[C@@H]1C(=O)O[C@@H](C#N)c1cccc(Oc2ccccc2)c1`, the mutagenic call (End Point: IN VIVO CHROMOSOMAL ABERRATIONS, Test System: BONE MARROW, Species: RAT, Strain/Sex: WISTAR/FEMALE, Route: IP) is “active; positive (structural changes)”; the mutagenic call (End Point: IN VIVO MICRONUCLEUS, Test System: BONE MARROW POLYCHROMATIC ERYTHROCYTES, Species: RAT, Strain/Sex: WISTAR/FEMALE, Route: ORAL (GAVAGE)) was “active; positive”; the mutagenic call (End Point: IN VIVO MICRONUCLEUS, Test System: BONE MARROW, Species: RAT, Strain/Sex: WISTAR/FEMALE, Route: IP) is “active; positive”; the mutagenic call (End Point: IN VIVO MICRONUCLEUS, Test System: POLYCHROMATIC ERYTHROCYTES FROM COLONIC CRYPT EPITHELIAL CELLS, Species: RAT, Strain/Sex: WISTAR/FEMALE, Route: ORAL (GAVAGE)) is “active; positive”.

Regarding `Cc1ccc(C)c(NO)c1`, the mutagenic call is “active; positive” under setting [1] and “active; positive” (Test System: AMES SALMONELLA TYPHIMURIUM, Strain/Indicator: TA100, Metabolic Activation: RAT, LIVER, S-9, PCB, Method: PREINCUBATION).

In the case of `Cc1cn(/C=C/C=O)c(=O)[nH]c1=O`, the mutagenic call (Test System: AMES SALMONELLA TYPHIMURIUM, Strain/Indicator: HISD3052, Metabolic Activation: NONE, Method: STANDARD PLATE) was “active; positive”.

On to `Clc1ccc(CCC2CO2)cc1` (stereo not given), for which the mutagenic call by setting is: under setting [1], “inactive; negative”; under setting [3], “active; positive”; under setting [2], “inactive; negative”; under setting [4], “active; positive”.
